Assay results as given in patent US6537977B1, “Anti-inflammatory agent” (Seikagaku Corporation, priority 1995, dated 2003).
Each block holds one compound with its values, some of them ahead of it.

Tests used:
[1] = set-up: species or system SD male rats; details: rat, in vivo
Experimental: X represents overlapping ◯ and ●.
Dermatan sulfate derived from crest and dermatan sulfate derived from bovine intestine (see reference example 2 in WO95/09188) were administered into tail vein of SD male rats and changes with the passage of time in the residual level of dermatan sulfate in blood were determined and the residual rate thereof to the initial level of dermatan sulfate on administration was calculated (see example 1 in the above International publication). […] Thus, since dermatan sulfate derived from crest or dermatan sulfate with the equivalent physical properties has a long life span in blood and sustained anti-inflammatory effects, a large dosage thereof is not required for the treatment and dermatan sulfate derived from crest or equivalent thereof is the most preferable.

[2] = tested on: MRL (1 pr/1 pr) mice; details: single administration of 10 mg/kg endoxan
Experimental: (§2) Ten weeks old male MRL (1 pr/1 pr) mice was used as experimental animals and DS prepared according to reference example 1 was used as an agent by dissolving it in sterile physiological saline solution on use.
(§3) Sterile physiological saline solution was administered in negative control group (non-treated group).
DS was daily, 5 times per week (neither on Saturday or on Sunday), administered into tail vein in mice using 1 ml disposable syringe at the dose level of 25 mg/kg/day. […] During administration, animals were daily observed carefully. After 8 weeks, blood samples were taken under anesthesia with Nembutal and animals were killed by exsanguination. Then, serum creatinine level, spleen weight and the weight of mesenteric lymph node were measured.
Treatment for enlarged spleen in MRL mice was tried. […] The dose of DS was 25 mg/kg in any case.

[3] = tested on: MRL (1 pr/1 pr) mice; details: single administration of 20 mg/kg endoxan i.p. once a week, 8 weeks
Experimental: as §2, §3
At the age of 10 weeks old, body weight of animals were weighed and blood samples were taken for determination of serum BUN (urea nitrogen) and serum creatinine. […] DS was daily, 5 times per week (neither on Saturday or on Sunday), administered into tail vein in mice using 1 ml disposable syringe at the dose level of 25 mg/kg/day. […] During administration, animals were daily observed carefully. After 8 weeks, blood samples were taken under anesthesia with Nembutal and animals were killed by exsanguination. Then, serum creatinine level, spleen weight and the weight of mesenteric lymph node were measured.

[4] = tested on: Cri; CD-1 mice; assay: Toxicity test by single intravenous administration; type: in vivo
Experimental: Toxicity test by single intravenous administration of dermatan sulfate(1) Experimental method
As experimental animals, five weeks old female and male Cri; CD-1 mice (Japanese Charles-river (n=5 each) were used. The DS solution obtained by the same method as in reference example 1 was made isotonic using sterile distilled water and sterile physiological saline solution and single 2000 mg/kg of DS was administered intravenously into tail vein in mice and clinical observations were carried out for 14 days.

[5] = tested on: MRL (1 pr/1 pr) mice with nephritis; assay: Mice SLE model-1: histopathological observations of kidney (MC and DP glomeruli); type: in vivo; details: 4 weeks
Experimental: As SLE model, 17 weeks old male MRL (1 pr/1 pr) mice were used, while C57BL/6 mice with the same age and sex were used as normal control. As agents, DS or low molecular weight heparin (LMWHep, Fragmin) prepared according to a method in reference example 1 was dissolved in sterile physiological saline solution on use.
(§1) Blood samples were taken from 17 weeks old mice, only MRL mice with nephritis whose level of blood urea nitrogen (BUN) were high at the nearly same level were selected and divided into 4 groups, each group consisting of 5 mice. Sterile physiological saline solution was administered in one group as non-treated control group, 5 mg/kg of DS, 25 mg/kg of DS and 1 mg/kg of LMWHep were administered into tail vein in another 3 groups, once per day and five times per week. […] Serum and plasma taken were used for determination of BUN, creatinine and fibrinogen and kidneys were used for histopathological examination.

[6] = tested on: MRL (1 pr/1 pr) mice with nephritis; assay: Mice SLE model-1: histopathological change of renal artery (angiitis); type: in vivo; details: for angiitis intermediate degree, number of individual / angiitis serious degree, number of individual / angiitis slight degree, number of individual: 5 mice
[7] = tested on: MRL (1 pr/1 pr) mice with nephritis; assay: Mice SLE model-1: effects on renal function (serum BUN, creatinine); type: in vivo; details: once per day, five times per week, 4 weeks
Experimental: as §1, with “As agents, DS or low molecular weight heparin ([…], Fragmin) prepared according to a method in reference example 1 was dissolved in sterile physiological saline solution on use. Blood” for “Blood”, “LMWHep” left out, “examination. […] In FIG. 3b, * means that there is a significant difference with p<0.05 from non-treated control group by Bonferroni examination. Both of BUN and creatinine level of non-treated control group were higher than those of normal control group(C57BL/6), which made it clear that renal function thereof was impaired.” for “examination.”

[8] = tested on: MRL (1 pr/1 pr) mice with nephritis; assay: Mice SLE model-1: fibrinogen level in blood; type: in vivo
[9] = tested on: Lewis rats with experimental allergic encephalomyelitis; assay: Rat experimental allergic encephalomyelitis (EAE), multiple sclerosis model; type: in vivo; details: 5 mg DS i.p. once a day since third day after immunization

residual rate of dermatan sulfate in blood [1]: scarcely detected
Compound: dermatan sulfate [reference compound]

Compound: O=P1(N(CCCl)CCCl)NCCCO1 (stereo not drawn) [endoxan, Cyclophosphamide]
spleen weight, compared with negative control group [2]: did not give any effect
serum creatinine level, compared with negative control group [3]: did not exhibit any effect

Compound: sodium salt of dermatan sulfate [DS]
death after 14 days observation ([4]; single 2000 mg/kg i.v. tail vein, 5 female and 5 male mice): no death
lethal dose ([4]; single i.v. tail vein, mice, 14 days observation): more than 2000 mg/kg
ratio of DP glomeruli (number of DP glomeruli/total number of glomeruli) ([5]; 5 mg/kg): clearly decreased in a dose-dependent manner
ratio of MC glomeruli (number of MC glomeruli/total number of glomeruli) ([5]; 5 mg/kg): slightly increased
ratio of DP glomeruli (number of DP glomeruli/total number of glomeruli) ([5]; 25 mg/kg): clearly decreased in a dose-dependent manner
ratio of MC glomeruli (number of MC glomeruli/total number of glomeruli) ([5]; 25 mg/kg): significantly increased
histopathological evaluation of angiitis of renal artery, versus non-treated group ([6]; 5 mg/kg group): not a big difference
angiitis intermediate degree, number of individual ([6]; 5 mg/kg group): 2
angiitis serious degree, number of individual ([6]; 5 mg/kg group): 3
angiitis slight degree, number of individual ([6]; 5 mg/kg group): 0
histopathological evaluation of angiitis of renal artery ([6]; 25 mg/kg group): individual with serious degree decreased and individual with intermediate and slight degree increased
angiitis intermediate degree, number of individual ([6]; 25 mg/kg group): 3
angiitis serious degree, number of individual ([6]; 25 mg/kg group): 1
angiitis slight degree, number of individual ([6]; 25 mg/kg group): 1
residual rate of dermatan sulfate in blood [1]: about 10%
residual rate of dermatan sulfate in blood, compared with dermatan sulfate derived from bovine intestine [1]: twice as much
BUN level ([7]; 5 mg/kg tail vein): slightly improved
creatinine level ([7]; 5 mg/kg tail vein): slightly improved
BUN level ([7]; 25 mg/kg tail vein): slightly improved
creatinine level ([7]; 25 mg/kg tail vein, p<0.05 vs non-treated control): significantly improve
increase of fibrinogen level in blood ([8]; 5 mg/kg group): suppressed in a dose-dependent manner
increase of fibrinogen level in blood ([8]; 25 mg/kg group): suppressed in a dose-dependent manner
mean onset day [9]: 9.5±0.5
accumulated clinical scores ([9]; p<0.05 vs control group): 12.4±1.7

Compound: low molecular weight heparin [LMWHep, reference compound]
ratio of DP glomeruli (number of DP glomeruli/total number of glomeruli) ([5]; 1 mg/kg): such an effect was not recognized
ratio of MC glomeruli (number of MC glomeruli/total number of glomeruli) ([5]; 1 mg/kg): slightly increased
histopathological evaluation of angiitis of renal artery, versus non-treated group ([6]; 1 mg/kg group): not a big difference
angiitis intermediate degree, number of individual ([6]; 1 mg/kg group): 1
angiitis serious degree, number of individual ([6]; 1 mg/kg group): 4
angiitis slight degree, number of individual ([6]; 1 mg/kg group): 0
BUN level ([7]; 1 mg/kg tail vein): slightly improved
creatinine level ([7]; 1 mg/kg tail vein): slightly improved
suppression of increase of fibrinogen level in blood ([8]; 1 mg/kg group): did not scarcely recognized
